Assay results: publication PMC8330742, “New benzothieno[2,3-c]pyridines as non-steroidal CYP17 inhibitors: design, synthesis, anticancer screening, apoptosis induction, and in silico ADME profile studies” (Journal of Enzyme Inhibition and Medicinal Chemistry, 2021)
Like-named read-outs stand apart in the source and are kept apart here.

Columns and labels:
RPMI-8226 = experiment: NCI-60 SRB screen; format: cell-based; conditions: Homo sapiens, single dose 10^−5 M, read-out: Growth inhibition (%)
SF-539 = experiment: NCI-60 SRB screen; format: cell-based, human; conditions: Homo sapiens, single dose 10^−5 M, read-out: Growth inhibition (%)
SNB-19 = experiment: NCI-60 SRB screen; format: cell-based; conditions: Homo sapiens, single dose 10^−5 M, read-out: Growth inhibition (%)
SNB-75 = experiment: NCI-60 SRB screen; format: cell-based, human; conditions: Homo sapiens, single dose 10^−5 M, read-out: Growth inhibition (%)
U251 = experiment: NCI-60 SRB screen; format: cell-based, human; conditions: Homo sapiens, U-251, single dose 10^−5 M, read-out: Growth inhibition (%)
OVCAR-5 = experiment: NCI-60 SRB screen; format: cell-based, human; conditions: Homo sapiens, single dose 10^−5 M, read-out: Growth inhibition (%)
OVCAR-8 = experiment: NCI-60 SRB screen; format: cell-based, human; conditions: Homo sapiens, single dose 10^−5 M, read-out: Growth inhibition (%)
A498 = experiment: NCI-60 SRB screen; format: cell-based, human; conditions: Homo sapiens, single dose 10^−5 M, read-out: Growth inhibition (%)
PC-3 = experiment: NCI-60 SRB screen; format: cell-based, human; conditions: Homo sapiens, single dose 10^−5 M, read-out: Growth inhibition (%)
DU-145 = experiment: NCI-60 SRB screen; format: cell-based, human; conditions: Homo sapiens, single dose 10^−5 M, read-out: Growth inhibition (%)
MCF7 = experiment: NCI-60 SRB screen; format: cell-based, human; conditions: Homo sapiens, read-out: Growth inhibition (%)
MDA-MB-231/ATCC = experiment: NCI-60 SRB screen; format: cell-based, human; conditions: Homo sapiens, single dose 10^−5 M, read-out: Growth inhibition (%)
BT-549 = experiment: NCI-60 SRB screen; format: cell-based, human; conditions: Homo sapiens, single dose 10^−5 M, read-out: Growth inhibition (%)
T-47D = experiment: NCI-60 SRB screen; format: cell-based, human; conditions: Homo sapiens, T47D, single dose 10^−5 M, read-out: Growth inhibition (%)
MDA-MB-468 = experiment: NCI-60 SRB screen; format: cell-based, human; conditions: Homo sapiens, single dose 10^−5 M, read-out: Growth inhibition (%)
[1] = single dose 10^−5 M, MCF-7, Breast cancer

| Compound | inhibition at 10 µM (RPMI-8226; RPMI-8226) | inhibition at 10 µM (SF-539; SF-539) | inhibition at 10 µM (SNB-19; SNB-19) | inhibition at 10 µM (SNB-75; SNB-75) | inhibition at 10 µM (U251; U251) | inhibition at 10 µM (OVCAR-5; OVCAR-5) | inhibition at 10 µM (OVCAR-8; OVCAR-8) | inhibition at 10 µM (A498; A498) | melting point | inhibition at 10 µM (RPMI-8226; RPMI-8226, Leukaemia) | inhibition at 10 µM (SF-539; SF-539, CNS cancer) | inhibition at 10 µM (SNB-19; SNB-19, CNS cancer) | inhibition at 10 µM (SNB-75; SNB-75, CNS cancer) | inhibition at 10 µM (U251; U251, CNS cancer) | inhibition at 10 µM (OVCAR-5; OVCAR-5, Ovarian cancer) | inhibition at 10 µM (OVCAR-8; OVCAR-8, Ovarian cancer) | inhibition at 10 µM (PC-3; PC-3, Prostate cancer) | inhibition at 10 µM (DU-145; DU-145, Prostate cancer) | inhibition at 10 µM (MCF7; [1]) | inhibition at 10 µM (MDA-MB-231/ATCC; MDA-MB 231/ATCC, Breast cancer) | further results |
| --- | --- | --- | --- | --- | --- | --- | --- | --- | --- | --- | --- | --- | --- | --- | --- | --- | --- | --- | --- | --- | --- |
| COc1ccc(C=C2Sc3c(F)cccc3C2=O)c(OC)c1 [Compound 2a, 2-(2,4-Dimethoxybenzylidene)-7-fluoro[1]benzothiophen-3(2H)-one] | -8.46% | -0.64% | -2.1% | 12.6% | -7.91% | -9.42% | -4.32% | -4.03% | 195 to 197 °C |  |  |  |  |  |  |  |  |  |  |  |  |
| O=C1C(=Cc2ccccc2[N+](=O)[O-])Sc2c(F)cccc21 [Compound 2c, 7-Fluoro-2-(2-nitrobenzylidene)[1]benzothiophen-3(2H)-one] | 30.6% | 3.65% | 14.2% | -1.55% | 32.5% |  | 6.75% | 55.1% | 170 to 172 °C |  |  |  |  |  |  |  |  |  |  |  |  |
| COc1ccc(C2NC(=O)C(Cl)c3c2sc2c(F)cccc32)c(OC)c1 (stereo not shown) [Compound 4a, 4-Chloro-1-(2,4-Dimethoxyphenyl)-8-fluoro-1,2-dihydro[1]benzothieno [2,3-c]pyridine-3(4H)-one] | 11.7% | 3.36% | 0.33% | 22.3% | 0.4% | -3.64% | -0.71% | 14.9% | 120 to 122 °C |  |  |  |  |  |  |  |  |  |  |  |  |
| COc1ccc(C2NC(=O)C(Cl)c3c2sc2c(F)cccc32)cc1 (stereo not shown) [Compound 4b, 4-Chloro-8-fluoro-1-(4-methoxyphenyl)-1,2-dihydro[1]benzothieno[2,3-c] pyridine-3(4H)-one] | 7.32% | 15.8% | 7.47% | 22.8% | 21.1% | -12.9% | 2.95% | 11.1% | 154 to 156 °C |  |  |  |  |  |  |  |  |  |  |  |  |
| O=C1NC(c2ccccc2[N+](=O)[O-])c2sc3c(F)cccc3c2C1Cl (stereo not shown) [Compound 4c, 4-Chloro-8-fluoro-1-(2-nitrophenyl)-1,2-dihydro[1]benzothieno[2,3-c] pyridine-3(4H)-one] | 5.9% | 3.36% | -2.16% | 11.7% | 8.82% | -2.88% | 1.73% | -6.23% | 110 to 112 °C |  |  |  |  |  |  |  |  |  |  |  |  |
| O=C1NC(c2cccc([N+](=O)[O-])c2)c2sc3c(F)cccc3c2C1N1CCOCC1 (stereo not shown) [Compound 6b, 8-Fluoro-4-morpholino-1(3-nitrophenyl)-1,2-dihydro[1]benzothieno[2,3-c]pyridin-3(4H)-one] | 14.4% |  |  |  |  | -6.35% | 2.6% | 13.5% | 250 to 251 °C |  |  |  |  |  |  |  |  |  |  |  | inhibition at 10 µM (PC-3; PC-3): 10.4%; inhibition at 10 µM (DU-145; DU-145): -9.4%; inhibition at 10 µM (MCF7; MCF-7, single dose 10^−5 M): 10.3%; inhibition at 10 µM (MDA-MB-231/ATCC; MDA-MB-231, MDAMB231/ATCC): 7.92%; inhibition at 10 µM (BT-549; BT-549): 1.66%; inhibition at 10 µM (T-47D): 15.4%; inhibition at 10 µM (MDA-MB-468; MDA-MB-468): -3.26% |
| O=[N+]([O-])c1cccc(C2NC(Cl)=C(Cl)c3c2sc2c(F)cccc32)c1 (stereo not shown) [Compound 7a, 3,4-Dichloro-8-fluoro-1-(3-nitrophenyl)-1,2-dihydro[1]benzothieno[2,3-c] pyridine] | 11.5% |  |  |  |  | 3.21% | 1.9% | 3.36% | 120 to 122 °C |  |  |  |  |  |  |  |  |  |  |  | inhibition at 10 µM (PC-3; PC-3): 3.11%; inhibition at 10 µM (DU-145; DU-145): -4.75%; inhibition at 10 µM (MCF7; MCF-7, single dose 10^−5 M): 5.05%; inhibition at 10 µM (MDA-MB-231/ATCC; MDA-MB-231, MDAMB231/ATCC): 8.09%; inhibition at 10 µM (BT-549; BT-549): 0.77%; inhibition at 10 µM (T-47D): 17.7%; inhibition at 10 µM (MDA-MB-468; MDA-MB-468): -4.71% |
| N#CC1=C(Cl)NC(c2cccc([N+](=O)[O-])c2)c2sc3c(F)cccc3c21 (stereo not shown) [Compound 7b, 3-Chloro-4-cyano-8-fluoro-1-(3-nitrophenyl)-1,2-dihydro[1]benzothieno [2,3-c]pyridine] |  |  |  |  |  |  |  |  | 140 to 142 °C | 12.7% | 3.78% | -0.67% | 8.28% | -7.36% | -3.54% | -4.49% | 3.5% | -14.2% | 8.22% | 7.25% | inhibition at 10 µM (A498; A498, Renal cancer): 19.7%; inhibition at 10 µM (BT-549; BT-549, Breast cancer): -2.93%; inhibition at 10 µM (T-47D; Breast cancer): -9.14%; inhibition at 10 µM (MDA-MB-468; MDA-MB-468, Breast cancer): -7.25% |
| O=[N+]([O-])c1cccc(C2NC(N3CCOCC3)=C(Cl)c3c2sc2c(F)cccc32)c1 (stereo not shown) [Compound 8b, 4-Chloro-3-(4-morpholino)-8-fluoro-1-(3-nitrophenyl)-1,2-dihydro [1]benzothieno[2,3-c]pyridine] |  |  |  |  |  |  |  |  | 175 to 177 °C | 16.2% | 6.36% | 1.4% | 10.4% | 6.85% | 8.49% | 1.71% | 14.5% | -1.71% | 21% | 18.8% | inhibition at 10 µM (A498; A498, Renal cancer): 10.4%; inhibition at 10 µM (BT-549; BT-549, Breast cancer): 4.09%; inhibition at 10 µM (T-47D; Breast cancer): 20.8%; inhibition at 10 µM (MDA-MB-468; MDA-MB-468, Breast cancer): 1.73% |
| O=[N+]([O-])c1cccc(C2NC(N3CCCCC3)=C(Cl)c3c2sc2c(F)cccc32)c1 (stereo not shown) [Compound 8c, 4-Chloro-3-(piperidin-1-yl)-8-fluoro-1-(3-nitrophenyl)-1,2-dihydro [1]benzothieno[2,3-c]pyridine] |  |  |  |  |  |  |  |  | 241 to 243 °C | 8.74% | -6.63% | -3.36% | 22.4% | -7.81% | -1.61% | -6.18% | 11.9% | -12.5% | 23.3% | 13.9% | inhibition at 10 µM (BT-549; BT-549, Breast cancer): -10.5%; inhibition at 10 µM (T-47D; Breast cancer): 17.5%; inhibition at 10 µM (MDA-MB-468; MDA-MB-468, Breast cancer): -13.9% |
